Laboratory results reported in patent US20120195847A1 (Nektar Therapeutics, priority 2008, published 2012).

Columns and labels:
mice [1] = settings: intracerebroventricular (i.c.v); cited from earlier work
mice [2] = settings: intrathecally (i.t.); cited from earlier work
[3] = Stability of biphalin during pre-incubation under physiological-like conditions; assay type: physicochemical; settings: 72 hour incubation in assay buffer, pH 7.5 at 37° C.
human δ opioid receptor = molecular target: T1, human δ opioid receptor (Homo sapiens, UniProt P41143); assay: Radioligand competition binding assay, δ opioid receptor ([3H]DPDPE); settings: 1 μM; pre-incubated 20 hours
T1 construct: expressed in transfected cells
T1 sequence (P41143 whole entry): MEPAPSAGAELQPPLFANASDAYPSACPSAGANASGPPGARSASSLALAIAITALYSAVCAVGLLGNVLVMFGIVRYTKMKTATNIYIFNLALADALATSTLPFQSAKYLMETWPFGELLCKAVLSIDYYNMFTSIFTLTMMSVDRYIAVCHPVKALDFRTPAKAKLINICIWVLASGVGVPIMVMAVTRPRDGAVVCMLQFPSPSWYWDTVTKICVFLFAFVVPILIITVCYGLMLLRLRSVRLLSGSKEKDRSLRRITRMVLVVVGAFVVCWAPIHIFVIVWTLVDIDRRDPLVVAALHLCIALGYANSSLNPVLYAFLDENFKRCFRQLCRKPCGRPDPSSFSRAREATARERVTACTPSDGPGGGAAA
Description: Competition binding experiments were conducted by incubating membrane protein to equilibrium in triplicate in the presence of a fixed concentration of radioligand and increasing concentrations (0.1 nM to 10 μM) of test compound in 100 μL final volume. The radioligands used were specific for each receptor type, and the assay conditions are described in Table BIP6.3. Following incubations, the membranes were rapidly filtered through GF/B filter plate (presoaked with 0.5% polyethyleneimine), washed four times with cold 50 mM Tris-HCl, pH 7.5, and the bound radioactivity was then measured. Non-specific binding was measured in the presence of excess naloxone (100 μM); this value was subtracted from the total binding to yield the specific binding at each test concentration.
The test compounds were stored under acidic condition to stabilize the PEG conjugation.
Ki (affinity of test compound) was obtained using the Cheng Prusoff correction using experimental Kd (affinity of radioligand) values that were previously determined under these assay conditions.

[4] = Stability of the conjugate during purification; assay type: physicochemical; settings: reaction mixture, acidic pH values

| Compound | potency in eliciting antinociception compared with morphine (mice [1]) | potency compared with morphine, tail flick testing (mice [2]) | stability following incubation [3] | inhibition of specific binding at the highest test concentration (human δ opioid receptor) | stability of the conjugate [4] |
| --- | --- | --- | --- | --- | --- |
| C[C@@H](NC(=O)[C@@H](N)Cc1ccc(O)cc1)C(=O)NCC(=O)N[C@@H](Cc1ccccc1)C(=O)NNC(=O)[C@H](Cc1ccccc1)NC(=O)CNC(=O)[C@@H](C)NC(=O)[C@@H](N)Cc1ccc(O)cc1 [Biphalin, Tyr-D-Ala-Gly-Phe-NH-NH-Phe-Gly-D-Ala-Tyr] | 257 fold | 1000 fold | remained stable | – | – |
| Di-mPEG-SBC-30K-biphalin: releasable di-conjugate of biphalin with N-m-PEG-Benzamide-p-Succinimidyl Carbonate (m-PEG-SBC-30K); not purified | – | – | – | ≤ 50% | instability of the conjugate, even at acidic pH values |
